Assay results from US9204645B2, “Insecticidal aromatic amides” (BAYER INTELLECTUAL PROPERTY GMBH, priority 2011, dated 2015).

Legend:
Type in all cases: in vivo
[1] = tested on: green peach aphid (Myzus persicae); assay: Myzus spray test (MYZUPE); details: for efficacy compared to similar compounds of the prior art: MYZUPE spray test; for inhibition at 20 g/ha / inhibition at 100 g/ha / inhibition at 500 g/ha: Myzus persicae, 144 h, MYZUPE, 6 dat; for inhibition at 20 g/ha / inhibition at 100 g/ha: read-out: % Activity
Protocol: Myzus—Spray Test (MYZUPE)
(§1) • Solvents: 78.0 parts by weight of acetone • 1.5 parts by weight of dimethylformamide • Emulsifier: 0.5 part by weight of alkylaryl polyglycol ether
(§2) To produce a suitable preparation of active compound, 1 part by weight of active compound is mixed with the stated amounts of solvents and emulsifier, and the concentrate is diluted with emulsifier-containing water to the desired concentration.
Discs of Chinese cabbage leaves (Brassica pekinensis) infested by all stages of the green peach aphid (Myzus persicae) are sprayed with an active compound preparation of the desired concentration.
After the desired period of time, the effect in % is determined. 100% here means that all of the aphids have been killed; 0% means that no aphids have been killed.

[2] = tested on: greenhouse red spider mite (Tetranychus urticae); assay: Tetranychus urticae spray test, OP-resistant (TETRUR), bean leaf discs; details: for efficacy compared to similar compounds of the prior art: TETRUR spray test, leaf discs; for inhibition at 100 g/ha / inhibition at 500 g/ha: Tetranychus urticae, foliar, 144 h, TETRUR, 6 dat, read-out: % Activity
Protocol: Tetranychus urticae—Spray Test; OP-resistant (TETRUR)
as §1, §2
Discs of bean leaves (Phaseolus vulgaris) which are infested by all stages of the greenhouse red spider mite (Tetranychus urticae) are sprayed with an active compound preparation of the desired concentration.
After the desired period of time, the effect in % is determined. 100% means that all of the spider mites have been killed; 0% means that none of the spider mites have been killed.

[3] = tested on: larvae of the mustard beetle (Phaedon cochleariae); assay: Phaedon cochleariae spray test (PHAECO); details: for inhibition at 20 g/ha: read-out: % Activity
Protocol: Phaedon Cochleariae—Spray Test (PHAECO)
as §1, §2
After the desired period of time, the effect in % is determined 100% means that all of the beetle larvae have been killed; 0% means that none of the beetle larvae have been killed.

[4] = tested on: caterpillars of the armyworm (Spodoptera frugiperda); assay: Spodoptera frugiperda spray test (SPODFR); details: 168 h, 7 dat
Protocol: Spodoptera frugiperda—Spray Test (SPODFR)
as §2, with “• Solvents: 78.0 parts by weight of acetone • 1.5 parts by weight of dimethylformamide • Emulsifier: 0.5 part by weight of alkylaryl polyglycol ether • To” for “To”
Leaf discs of maize (Zea mays) are sprayed with an active compound preparation of the desired concentration and, after drying, populated with caterpillars of the armyworm (Spodoptera frugiperda).
After the desired period of time, the effect in % is determined. 100% means that all of the caterpillars have been killed; 0% means that none of the caterpillars have been killed.

[5] = Phaedon cochleariae, 168 h, PHAECO, 7 dat

For `Cn1nc(C(F)(F)F)c(C(F)(F)F)c1C(=O)Nc1ccc(F)c(CNC(=O)C2CC2)c1` [Example 298], the “efficacy compared to similar compounds of the prior art” value (“efficacy compared to similar compounds” for short) [1] was “superior efficacy” and the inhibition at 20 g/ha [1] was 90%.
With `CC(=O)NCc1cc(NC(=O)c2c(Br)c(C(F)(F)C(F)(F)F)nn2C)ccc1F` [Example 926] the “efficacy compared to similar compounds” value [2] was “superior efficacy” and the inhibition at 100 g/ha [2] was 90%.
`Cn1nc(C(F)(F)C(F)(F)F)c(Br)c1C(=O)Nc1ccc(F)c(CNC(=O)C2CC2)c1` [Example 933] was tested, and the “efficacy compared to similar compounds” value ([3]; PHAECO spray test) was “superior efficacy”, the inhibition at 20 g/ha [3, 5] was 100% and the “efficacy compared to similar compounds” value [2] was “superior efficacy”. For the same molecule, the inhibition at 100 g/ha [2] was 90%.
In the case of `CC(=O)NCc1cc(NC(=O)c2c(Cl)c(C(F)(F)F)nn2C)ccc1F` [Example 937], the “efficacy compared to similar compounds” value [1] is reported as “superior efficacy” and the inhibition at 100 g/ha [1] is reported as 90%.
With `Cn1nc(C(F)(F)C(F)(F)F)c(C(F)(F)F)c1C(=O)Nc1cccc(C(=O)NC2CC2)c1` [Example Ik-13, reference compound] the inhibition at 500 g/ha [1] was 0% and the inhibition at 500 g/ha [2] was 0%.
For `Cn1nc(C(F)(F)F)c(Cl)c1C(=O)Nc1ccc(Cl)c(C(=O)NC2CC2)c1` [Example Ik-18, reference compound], the inhibition at 100 g/ha [1] was 0%.
`Cn1nc(C(F)(F)C(F)(F)F)c(Br)c1C(=O)Nc1ccc(Cl)c(C(=O)NC2CC2)c1` [Example Ik-26, reference compound] was tested, and the inhibition at 20 g/ha [3, 5] was 0% and the inhibition at 100 g/ha [2] was 0%.
With `CC(C)NC(=O)c1cc(NC(=O)c2c(Br)c(C(F)(F)C(F)(F)F)nn2C)ccc1Cl` [Example Ik-27, reference compound] the inhibition at 100 g/ha [2] was 0%.
For `CCCNC(=O)c1cc(NC(=O)c2c(C(F)(F)F)c(C(F)(F)C(F)(F)F)nn2C)ccc1Cl` [Example Ik-30, reference compound], the inhibition at 20 g/ha [1] was 0%.
Molecule `CC(C)NC(=O)c1c(F)ccc(NC(=O)c2c(C(F)(F)F)c(C(F)(F)C(F)(F)F)nn2C)c1F` [Example Ik-74, reference compound] has an inhibition at 100 g/ha ([3]; Phaedon cochleariae, 168 h, PHAECO, 100 g/ha, 7 dat) of 33%, an inhibition at 500 g/ha [1] of 0% and an inhibition at 500 g/ha [2] of 0%. The inhibition at 100 g/ha [4] was 0%.
For `CC(C)NC(=O)c1cc(NC(=O)c2c(C(F)(F)F)c(C(F)(F)C(F)(F)F)nn2C)ccc1F` [Example Ik-75, reference compound], the inhibition at 20 g/ha [3, 5] was 0%, the inhibition at 100 g/ha [1] was 0% and the inhibition at 500 g/ha [1] was 0%. For the same molecule, the inhibition at 100 g/ha [2] was 0% and the inhibition at 500 g/ha [2] was 0%.
`CN(C(=O)c1c(C(F)(F)F)c(C(F)(F)C(F)(F)F)nn1C)c1ccc(Cl)c(C(=O)NC2CC2)c1` [Example Ik-132, reference compound] showed an inhibition at 100 g/ha [1] of 0%.
`Cn1nc(C(F)(F)C(F)(F)F)c(C(F)(F)F)c1C(=O)Nc1ccc(F)c(C(=O)NC2CC2)c1` [Example Ik-155, reference compound] gave an inhibition at 100 g/ha [1] of 0% and an inhibition at 100 g/ha [2] of 0%.
`Cn1nc(C(F)(F)F)c(C(F)(F)F)c1C(=O)Nc1ccc(Cl)c(C(=O)NC2CC2)c1` [Example Ik-195, reference compound] gave an inhibition at 20 g/ha [1] of 0%.
